Values after ≈ are worked out from the molar mass of the structure shown.
Assays:
T. cruzi epimastigotes = experiment: MIC against T. cruzi epimastigotes, ATP assay; assay type: cell-based; conditions: Trypanosoma cruzi, 48 hours at 30° C.
Procedure: A 1:20 working dilution of T. cruzi epimastigotes was prepared in LIT1029 medium from a saturated (˜4×10^6 cells/mL) culture. 100 μL of the 1:20 working dilution was plated, and the epimastigotes were incubated with 50 μM, 25 μM, 12.5 μM, 6.25 μM, 3.13 μM, 1.5 μM, or 0 μM Compound 2 for 48 hours at 30° C. After incubation with Compound 2, T. cruzi viability was assessed via an ATP assay. […] An increase in relative light units (RLU) indicates the presence of ATP and viable cells. Phenylarsine oxide (PAO) was used as a control.

[1] = test system: T. cruzi amastigotes and trypomastigotes; experiment: Viability of tdTomato T. cruzi amastigotes and trypomastigotes, fluorescence; assay type: cell-based, Trypanosoma cruzi; conditions: 25 μM, 48 hours at 37° C.
Procedure: The viability of a mixture of T. cruzi amastigotes and trypomastigotes after exposure to 25 μM of the compounds of the disclosure was determined. 2×10^5 parasites/100 μL were plated in 96-well plates. Parasites expressing tdTomato were used to assess parasite viability using fluorescence measurements. Parasites were incubated with 25 μM of the compounds of the disclosure for 48 hours at 37° C. After the incubation period, the viability of amastigotes and trypomastigotes was assessed by measuring the fluorescence intensity at 510 nm-590 nm using a Tecan plate reader, where the presence of fluorescence indicated viable amastigotes/trypomastigotes.

Jurkat cells = experiment: MTT cell survival assay, Jurkat; assay type: cell-based; conditions: Homo sapiens, 48 hours at 37° C., read-out: IC50 (GI50), cell survival
Procedure: (§1) The GI50 (IC50), the concentration at which 50% cell survival is seen upon treatment with a compound, was determined for Compound 2 in Jurkat, U87, HeLa, and ARPE cells. Cells were cultured in 96-well plates and incubated with 50 μM, 25 μM, 12.5 μM, 6 μM, 3 μM, 1.5 μM, or 0 μM of Compound 2 for 48 hours at 37° C. Following the incubation period, a 3-(4,5-dimethylthiazol-2-yl)-2,5-diphenyl tetrazolium bromide (MTT) assay was performed. In brief, a 10% volume of MTT was added to each well. Cells were incubated with MTT for 2 hours, at which time cell supernatant was removed and cells were taken into 100 μL DMSO. The absorbance of cell solutions was then read at 595 nm. A decrease in absorbance indicated a decrease in cell survival.

U87 cells = experiment: MTT cell survival assay, U87; assay type: cell-based; conditions: Homo sapiens, U-87 MG, 48 hours at 37° C., read-out: IC50 (GI50), cell survival
Procedure: as §1

HeLa cells = experiment: MTT cell survival assay, HeLa; assay type: cell-based; conditions: Homo sapiens, 48 hours at 37° C., read-out: IC50 (GI50), cell survival
Procedure: as §1

ARPE cells = experiment: MTT cell survival assay, ARPE; assay type: cell-based; conditions: Homo sapiens, 48 hours at 37° C., read-out: IC50 (GI50), cell survival
Procedure: as §1

L. major promastigotes = experiment: L. major promastigote viability, propidium iodide flow cytometry; assay type: cell-based, Leishmania major; conditions: 50 μM, 48 hours at 24° C.
Procedure: 5×10^5 L. major promastigotes were treated with vehicle control (DMSO), […], 5 μM Compound 5, 50 μM Compound 2, 50 μM Compound 5, or […] for 48 hours at 24° C. Promastigote viability was then assessed via a propidium iodide flow cytometry assay. Propidium iodide is only taken up by dead cells, and the presence of fluorescence in a promastigote sample reflects compound efficacy.

[2] = test system: L. major-infected PBMC cells; experiment: L. major-infected PBMC cells, Hoechst micrographs; assay type: cell-based, Leishmania major; conditions: 40 μM
Procedure: Human peripheral blood mononuclear cells (PBMC) were plated onto polylysine-coated glass slides in 24-well plates and allowed to differentiate towards monocyte-derived macrophages (MDMs). Non-adherent cells were removed 48-hours post plating. Adherent monocytes were left to further differentiate for another 48 hours to MDMs. Following the completion of the differentiation period, MDMs were treated with vehicle control (DMSO), […], […], Compound 4, Compound 6, Compound 7, Compound 8, Compound 9, Compound 10, […]

## O=C(NO)C(c1ccccc1)c1c(-c2ccc3ccccc3c2)[nH]c2ccccc12 (centres unmarked) [Compound 2, N-hydroxy-2-(2-(naphthalen-2-yl)-1H-indol-3-yl)-2-phenylacetamide]
T. cruzi epimastigotes
  MIC: ~6 µM (≈ 2.35 µg/mL)
[1]
  toxicity to T. cruzi amastigotes and trypomastigotes: most toxic
Jurkat cells
  IC50: 7.97 ± 1.06 µM
U87 cells
  IC50: 11.5 ± 0.41 µM
HeLa cells
  IC50: 13.7 ± 0.75 µM
ARPE cells
  IC50: 14.8 ± 1.13 µM
L. major promastigotes
  efficacy on L. major promastigote survival: higher efficacy than MTF or the vehicle control
[2]
  number of parasites/PBMC cell: decreases the number of parasites/PBMC cell
